The structures appear in SMILES notation.

This is an account of results in ChEMBL document CHEMBL6087395, “NGT: Generative AI with Synthesizability Guarantees Discovers MC2R Inhibitors from a Tera-Scale Virtual Screen” (J Med Chem, 2024).

Assay [1] deals with Melanocortin receptor 3 (Homo sapiens, UniProt P41968). The assay can be described thus: Antagonist activity at human MC3 receptor expressed in HEK293 cells assessed as inhibition of ACTH-induced cAMP accumulation measured after 70 mins incubation by fluorescence analysis. It counts as functional, cell-based. In general terms: cAMP levels reflect the balance of adenylyl cyclase and phosphodiesterase activity.

The target in assay [2] is Melanocortin receptor 5 (Homo sapiens, UniProt P33032). The assay can be described thus: Antagonist activity at human MC5 receptor expressed in HEK293 cells assessed as inhibition of ACTH-induced cAMP accumulation measured after 70 mins incubation by fluorescence analysis. It counts as functional, cell-based.
Assay [3] can be described thus: Antagonist activity at human MC2 receptor expressed in HEK293 cells assessed as inhibition of ACTH-induced cAMP accumulation measured after 70 mins incubation by fluorescence analysis. The conditions noted are these: HEK293, 70 min.
Assay [4] addresses Melanocortin receptor 4 (Homo sapiens, UniProt P32245). The assay can be described thus: Antagonist activity at human MC4 receptor expressed in HEK293 cells assessed as inhibition of ACTH-induced cAMP accumulation measured after 70 mins incubation by fluorescence analysis. It counts as functional, cell-based.

Melanocortin receptor 5, sequence (P33032 whole entry): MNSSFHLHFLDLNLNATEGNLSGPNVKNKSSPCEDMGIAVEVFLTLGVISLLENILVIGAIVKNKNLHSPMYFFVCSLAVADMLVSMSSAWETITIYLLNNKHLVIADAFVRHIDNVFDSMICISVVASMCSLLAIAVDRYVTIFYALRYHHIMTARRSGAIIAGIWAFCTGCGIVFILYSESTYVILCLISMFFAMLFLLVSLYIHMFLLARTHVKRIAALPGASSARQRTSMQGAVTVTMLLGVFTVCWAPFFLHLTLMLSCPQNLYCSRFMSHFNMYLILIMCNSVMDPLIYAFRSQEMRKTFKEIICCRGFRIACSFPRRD
Melanocortin receptor 4, sequence (P32245 whole entry): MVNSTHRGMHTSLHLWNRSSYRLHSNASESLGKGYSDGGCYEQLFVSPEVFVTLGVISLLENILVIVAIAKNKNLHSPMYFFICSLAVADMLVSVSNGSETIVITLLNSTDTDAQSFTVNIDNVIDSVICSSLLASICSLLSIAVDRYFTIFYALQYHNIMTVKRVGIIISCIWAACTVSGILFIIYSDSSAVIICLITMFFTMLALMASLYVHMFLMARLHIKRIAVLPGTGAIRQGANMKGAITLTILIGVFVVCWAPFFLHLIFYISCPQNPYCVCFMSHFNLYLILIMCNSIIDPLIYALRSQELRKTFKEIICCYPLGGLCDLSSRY
Melanocortin receptor 3, sequence (P41968 whole entry): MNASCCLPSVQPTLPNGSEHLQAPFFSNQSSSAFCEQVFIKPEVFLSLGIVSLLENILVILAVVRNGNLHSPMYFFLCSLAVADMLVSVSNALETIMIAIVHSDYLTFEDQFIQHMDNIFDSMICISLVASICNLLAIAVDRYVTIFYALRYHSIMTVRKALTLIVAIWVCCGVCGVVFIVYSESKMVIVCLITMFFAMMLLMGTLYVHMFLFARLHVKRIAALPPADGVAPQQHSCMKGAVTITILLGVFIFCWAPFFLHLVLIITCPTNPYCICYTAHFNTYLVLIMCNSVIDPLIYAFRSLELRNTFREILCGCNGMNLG

For orientation: EC50 means the concentration at which the effect is half-maximal. On to `O=C1NCCOc2ccc(CNCC3(c4ccc(C=C5CCSCC5)s4)CCC3)cc21`, for which the half-maximal effective concentration (EC50) came to 33 µM in assay [1], 31 µM in assay [2], 11 µM in assay [3] and 32 µM in assay [4].

For `CCc1ccc(-c2cc(CNC3CCN(c4ccccc4C(N)=O)C3)c(OC)cc2F)s1` (stereo not given), the EC50 in assay [1] stood at 33 µM.

As for `Cc1ccc(-c2cc(Cl)cs2)cc1C1(C(=O)NC2CN(C3CCC3)C2)CC1`, the EC50 in assay [2] was 16 µM.

For `COc1cc(C)c(-c2c(C)c(C)c(C(=O)NCC3CCCN3CCCO)c(C)c2C)cc1C` (stereo not given), the EC50 in assay [1] was determined as 156 µM; in assay [2], 150 µM.

Turning to `CC1CC(N2CCCC2)CN1C(=O)c1cc(O)cc(-c2cc(Cl)ccc2F)c1` (stereo not given), the EC50 in assay [1] was found to be 94 µM; in assay [2], 154 µM; in assay [3] it was 6.7 µM; in assay [4] it was 425 µM.

In the case of `COc1ccc(C(CN(C)C)NC(=O)COc2ccc(-c3cccc4c3OCC4)cc2Cl)cc1` (stereo not given), the EC50 came out at 37 µM in assay [1], 13 µM in assay [2], 4.1 µM in assay [3] and 31 µM in assay [4].

Turning to `CCCN1CC(NC(=O)[C@@H]2C[C@H]2c2cccc(-c3cc(Cl)ccc3OC)c2Cl)C1`, the EC50 in assay [1] worked out at 19 µM.

For the compound `O=C(NCC(F)F)C(C1CC2(C1)CC21CCC1)N(C(=O)c1cc2c(cn1)CCCC2)[C@H]1C[C@@H](N2CCCC2)C1` (stereo not given in full), the EC50 in assay [1] was 50 µM; in assay [2], 102 µM; in assay [3], 38 µM; in assay [4], 36 µM.

As for `COCCNC(=O)C(C1CC2(C1)CC21CCC1)N(C(=O)c1cn(C)cn1)C1CCCN(c2cccc(C)c2)C1` (stereo not given), the EC50 came to 32 µM in assay [1], 72 µM in assay [2], 7 µM in assay [3] and 33 µM in assay [4].
